Test results as given in US20120251528A1, “Non-Human Mammal Model Of Human Hematopoietic Cancer” (priority 2009, published 2012).
Entries after “also recorded” stand apart in the source; their conditions may differ.

How the values were obtained:
GFP+ leukemic cells = assay: Combinatorial treatment of Alemtuzumab and cyclophosphamide in secondary GFP/myc/bcl mice: GFP+ cells per organ; type: in vivo, mouse; details: 9 days after beginning of treatment; for effect on the leukemia in the bone marrow: single treatment
Description: Absolute number of GFP+leukemic cells per organ was assessed by FACS and absolute count calculation.
Cohorts of secondary recipients were generated and divided into treatment groups as described above.

GFP/myc/bcl cells [1] = assay: Complement-dependent cytotoxicity (CDC) in vitro, Annexin-V-PE/7-AAD flow cytometry; type: cell-based, human; details: 1-100 μg/ml, 48 h
Description: Media were supplemented with human, murine BL6- as NSG-derived serum. Serum-free media and heat-inactivated serum served as control. Cell viability was assessed by Annexin-V-PE/7-AAD flow cytometry after 48 h.
(§1) Antibody-bound leukemic cells can also be killed by complement-mediated lysis.

GFP/myc/bcl cells [2] = assay: Cumulative survival of secondary GFP/myc/bcl mice, Alemtuzumab vs control; type: in vivo, mouse; details: Log-rank test; FIG. 4C
Description: (§3) Each mouse in a cohort of secondary mice was injected with ˜10^6 GFP+ cells from the same primary donor mouse. 18-20 days later, mice were divided into 2 groups, and stratified for the density of GFP+ cells found in their peripheral blood (i.e. having the same (or similar) number of GFP+ cells/uL of blood).
(§4) Two days after completing the course of treatment, several mice were euthanized and the number of GFP+ cells in various organs was determined.

leukemic cells = assay: Alemtuzumab treatment of macrophage-depleted (clodronate liposomes) tumor-bearing mice; type: in vivo, mouse; details: treated 2 days after injection of clodronate liposomes
GMB cells = assay: Antibody-dependent cellular cytotoxicity with thioglycollate induced macrophages from NSG mice in vitro; type: cell-based, human; details: for macrophage-mediated killing / lysis of leukemia cells: induced peritoneal NSG macrophages
Excerpt: as §1

ALL-cells = assay: Direct cytotoxic effects on ALL-cells in vitro; type: cell-based, human
Excerpt: as §1

GFP/myc/bcl cells [3] = details: 5 mg/kg i.v. days 1, 4, 7, two days after completing treatment
Description: Mice were treated 14 days after transplantation while showing leukemic phenotype. […] Response to treatment was assessed after 7 days, a leukemic burden was measured by flow cytometry and calculating absolute cell count per organ.
as §3, §4

GFP+ leukemia cells = assay: In vivo binding of GFP/myc/bcl cells by labeled Alemtuzumab, flow cytometry of homogenized organs; set-up: species or system mouse; details: 5 mg/kg, 24 h
Description: Organs were homogenized and antibody binding to cells detected by flow cytometry.
(§2) Mice were sacrificed after 24 h and imaged at an IVIS fluorometer. […] Organs were homogenized and cells from these organs were directly assessed for Alemtuzumab-AlexaFluor750 binding by flow cytometry.

[4] = Alemtuzumab distribution in vivo, IVIS fluorometry; set-up: species or system mouse; details: 24 h; for tissue distribution of fluorescent signal (spleen, liver, bones): 5 mg/kg i.v.
Description: High signal in dissected whole brain.
as §2

GFP/myc/bcl cells [5] = assay: F(ab)2 fragments of Alemtuzumab injected to secondary GFP/myc/bcl mice (Fc-dependent effects); type: in vivo, mouse; details: injected day 14 after transplantation, vs Alemtuzumab control
Excerpt: as §1

[6] = listed as Alemtuzumab-AlexaFluor750

Question: With `O=P1(N(CCCl)CCCl)NCCCO1` (stereo not drawn) [cyclophosphamide] as the compound, how does the “reduction of GFP+ cells found in the brain” value (GFP+ leukemic cells; 150 mg/kg i.p. days 1 and 2) read?
Answer: ~300 fold

Question: And the “reduction of GFP+ cells in the peripheral blood” value (GFP+ leukemic cells; single agent)?
Answer: as effectively as the treatment using Alemtuzumab alone

Question: And the “effect on the leukemia in the bone marrow” value (GFP+ leukemic cells)?
Answer: neither single treatment had much effect

Question: With Alemtuzumab as the compound, how does the “complement-dependent cytotoxicity, human serum” value (GFP/myc/bcl cells [1]; media with human serum) read?
Answer: detected in human serum

Question: What about the “complement-dependent cytotoxicity, murine sera” value (GFP/myc/bcl cells [1]; media with murine BL6- or NSG-derived serum) of the same compound?
Answer: did not mediate Alemtuzumab mediated tumor cell killing; also recorded: not in murine sera

Question: And the “effect on GFP+ cells in the brain” value (GFP+ leukemic cells; single agent)?
Answer: no effect

Question: And the “effect on the leukemia in the bone marrow” value (GFP+ leukemic cells)?
Answer: neither single treatment had much effect

Question: What about the “survival vs PBS-treated control” value (GFP/myc/bcl cells [2]) of the same compound?
Answer: survived significantly longer; also recorded: significant prolonged survival

Question: And the “reduction of leukemic cells in the spleen of macrophage-depleted mice” value (leukemic cells)?
Answer: no reduction of leukemic cells in the spleen

Question: What about the “time within which macrophages killed GMB cells” value (GMB cells; NSG macrophages in the presence of antibody) of the same compound?
Answer: ≤ 13 h

Question: What about the “macrophage-mediated killing / lysis of leukemia cells” value (shortened to “macrophage-mediated killing / lysis”) (GMB cells) of the same compound?
Answer: capable of ALL-cell lysis

Question: And the “direct cytotoxic effects on ALL-cells” value (ALL-cells)?
Answer: no direct cytotoxic effects

Question: What about the “number of GFP+ cells in bone marrow vs control mice” value (GFP/myc/bcl cells [3]; bone marrow) of the same compound?
Answer: approximately the same

Question: And the “number of GFP+ cells in brain vs control mice” value (GFP/myc/bcl cells [3]; brain)?
Answer: approximately the same

Question: And the “decrease of GFP+ cells in liver vs PBS” value (GFP/myc/bcl cells [3]; liver)?
Answer: ~400 fold

Question: What about the “decrease of GFP+ cells in peripheral blood vs PBS” value (GFP/myc/bcl cells [3]; peripheral blood) of the same compound?
Answer: ~30 fold

Question: What about the “decrease of GFP+ cells in spleen vs PBS” value (GFP/myc/bcl cells [3]; spleen) of the same compound?
Answer: ~3300 fold

Question: What does the source list for “AlexaFluor750 labeled Alemtuzumab: Alemtuzumab labeled with AlexaFluor 750”?
Answer: antibody binding to GFP+ leukemia cells, bone marrow (GFP+ leukemia cells): increased AlexaFLuor750 signal; antibody binding to GFP+ leukemia cells, spleen (GFP+ leukemia cells): increased AlexaFLuor750 signal; antibody binding to brain-derived leukemia cells (GFP+ leukemia cells): no detection could be detected; antibody binding to GFP+ leukemia cells, bone marrow (GFP+ leukemia cells; [6]): Strong antibody binding; antibody binding to GFP+ leukemia cells, spleen (GFP+ leukemia cells; [6]): Strong antibody binding; antibody binding to brain-derived leukemia cells (GFP+ leukemia cells; [6]): no specific binding; tissue distribution of fluorescent signal (spleen, liver, bones) [4]: Intense staining of spleen, liver and bones; tissue distribution of fluorescent signal (spleen, liver, bones) ([4]; listed as Labeled Alemtuzumab): focused on spleen and bones; fluorescent signal in dissected whole brain ([4]; i.v.): High signal

Question: Which “macrophage-mediated killing / lysis” value (GMB cells) does the source give for “F(ab)2 fragments of Alemtuzumab: pepsin-digested F(ab)2-fragments of Alemtuzumab lacking the Fc part” here?
Answer: no effect

Question: And the “macrophage-mediated killing / lysis” value (GMB cells; listed as F(ab)2 fragments)?
Answer: No GFP/myc/bcl-directed killing

Question: And the “therapeutic effect in secondary GFP/myc/bcl mice” value (GFP/myc/bcl cells [5])?
Answer: no therapeutic effects

Question: What about the “therapeutic effect in secondary GFP/myc/bcl mice” value (GFP/myc/bcl cells [5]; listed as F(ab)2-fragments of Alemtuzumab) of the same compound?
Answer: no therapeutic effect
